Measurements reported in ChEMBL document CHEMBL1201862, “PubChem BioAssay data set” (2004).
Calls of active or inactive are those of the source.

Key:
[1] = Trypanosoma cruzi growth suppression in host cells – NIH3T3 host cells, beta-gal luminescence, confirmation (AID 2044); assay type: functional, cell-based;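 note: intracellular parasites grown in NIH/3T3 mouse fibroblasts as host cells; luminescent beta-galactosidase reporter signal from transgenic T. cruzi replicating inside host cells; inhibitors lower the luminescence signal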
[2] = NIH3T3 cell viability loss – ATP luminescence, mouse fibroblasts, counter-screen, dose response (AID 2010); assay type: functional, cell-based;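 note: cells exposed to compound for about 90 hours before reading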
[3] = target: Transthyretin (Homo sapiens, UniProt P02766); assay: Luminescence-based cell-based high throughput dose response assay to identify activators of Transthyretin (TTR) transcription.; assay type: functional
[4] = viability loss in Vero cells – cytotoxicity control for Vif-APOBEC3G degradation inhibitor project, dose response (AID 1117358); assay type: functional; conditions: Vero
[5] = target: Mitogen-activated protein kinase 10 (Homo sapiens, UniProt P53779); assay: Dose response biochemical screening assay for inhibitors of c-Jun N-Terminal Kinase 3 (JNK3). [Related pubchem assays: 746 ]
[6] = target: E3 ubiquitin-protein ligase Mdm2 (Homo sapiens, UniProt Q00987); assay: MDM2-luc reporter signal enhancers, multi-concentration potency testing, MDM2 ubiquitin-protein ligase inhibitor program, whole-cell format, luminescence detection, 384-well microplate (AID 1394); assay type: functional;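 note: MDM2 E3 inhibitors raise luminescence so EC50 is for signal enhancement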
E3 ubiquitin-protein ligase Mdm2, sequence (Q00987 whole entry): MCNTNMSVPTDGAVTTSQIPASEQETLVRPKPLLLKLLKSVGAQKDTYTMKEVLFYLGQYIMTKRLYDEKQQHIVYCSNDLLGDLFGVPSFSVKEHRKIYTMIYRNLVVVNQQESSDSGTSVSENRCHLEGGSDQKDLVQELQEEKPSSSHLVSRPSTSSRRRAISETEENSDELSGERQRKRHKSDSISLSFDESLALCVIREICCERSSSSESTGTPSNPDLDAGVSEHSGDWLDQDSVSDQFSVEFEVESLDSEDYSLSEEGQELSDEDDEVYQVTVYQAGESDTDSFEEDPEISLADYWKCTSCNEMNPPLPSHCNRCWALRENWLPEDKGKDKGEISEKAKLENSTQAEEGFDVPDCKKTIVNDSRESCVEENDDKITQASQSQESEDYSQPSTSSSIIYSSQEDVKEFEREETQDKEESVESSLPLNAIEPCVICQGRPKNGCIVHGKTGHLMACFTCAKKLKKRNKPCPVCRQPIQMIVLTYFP

[7] = target: Induced myeloid leukemia cell differentiation protein Mcl-1 (Homo sapiens, UniProt Q07820); assay type: functional
Induced myeloid leukemia cell differentiation protein Mcl-1, sequence (Q07820 whole entry): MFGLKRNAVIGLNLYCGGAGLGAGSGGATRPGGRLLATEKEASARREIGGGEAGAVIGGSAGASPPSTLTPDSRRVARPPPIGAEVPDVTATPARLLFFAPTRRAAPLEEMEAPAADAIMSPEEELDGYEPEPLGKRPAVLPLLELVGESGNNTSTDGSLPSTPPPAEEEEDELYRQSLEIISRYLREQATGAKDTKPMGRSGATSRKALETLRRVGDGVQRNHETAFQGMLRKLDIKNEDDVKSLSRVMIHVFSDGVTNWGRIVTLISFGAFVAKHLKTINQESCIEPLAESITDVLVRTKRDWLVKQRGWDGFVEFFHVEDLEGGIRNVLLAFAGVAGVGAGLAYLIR

[8] = target: Protein Tat (Human immunodeficiency virus type 1 group M subtype B (isolate HXB2)(HIV-1), UniProt P04608); assay type: functional;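 note: tat binding to TAR RNA read out by fluorescence polarization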
Protein Tat, sequence (P04608 whole entry): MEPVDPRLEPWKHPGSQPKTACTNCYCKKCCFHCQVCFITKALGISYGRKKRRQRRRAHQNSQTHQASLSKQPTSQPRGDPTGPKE

[9] = target: Glutathione-S-transferase (Schistosoma japonicum, UniProt Q26513); assay: GST-antibody interaction or FRET quenching – biochemical, TR-FRET, artefact control for Vif-APOBEC3G degradation inhibitor project, dose response (AID 1117362); assay type: functional
Glutathione-S-transferase, sequence (Q26513 whole entry): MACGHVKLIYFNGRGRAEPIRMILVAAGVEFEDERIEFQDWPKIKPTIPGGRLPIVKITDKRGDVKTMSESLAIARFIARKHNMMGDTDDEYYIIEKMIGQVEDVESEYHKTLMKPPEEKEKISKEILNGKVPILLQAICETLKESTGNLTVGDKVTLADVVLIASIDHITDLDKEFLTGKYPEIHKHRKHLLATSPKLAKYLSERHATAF

[10] = target: Peroxisome proliferator-activated receptor gamma/Nuclear receptor coactivator 2 (Homo sapiens, UniProt P37231); assay type: functional;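 note: agonist potency for raising coactivator recruitment to the receptor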
[11] = target: Peroxisome proliferator-activated receptor gamma/Nuclear receptor coactivator 1 (Homo sapiens, UniProt P37231); assay type: functional;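 note: agonist potency as compounds enhance coactivator SRC-1 recruitment to PPARgamma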
[12] = target: Ubiquitin carboxyl-terminal hydrolase BAP1 (Homo sapiens, UniProt Q92560); assay: inhibition of BAP1 ubiquitin hydrolase activity – biochemical, dose response (AID 714); assay type: functional
Ubiquitin carboxyl-terminal hydrolase BAP1, sequence (Q92560 whole entry): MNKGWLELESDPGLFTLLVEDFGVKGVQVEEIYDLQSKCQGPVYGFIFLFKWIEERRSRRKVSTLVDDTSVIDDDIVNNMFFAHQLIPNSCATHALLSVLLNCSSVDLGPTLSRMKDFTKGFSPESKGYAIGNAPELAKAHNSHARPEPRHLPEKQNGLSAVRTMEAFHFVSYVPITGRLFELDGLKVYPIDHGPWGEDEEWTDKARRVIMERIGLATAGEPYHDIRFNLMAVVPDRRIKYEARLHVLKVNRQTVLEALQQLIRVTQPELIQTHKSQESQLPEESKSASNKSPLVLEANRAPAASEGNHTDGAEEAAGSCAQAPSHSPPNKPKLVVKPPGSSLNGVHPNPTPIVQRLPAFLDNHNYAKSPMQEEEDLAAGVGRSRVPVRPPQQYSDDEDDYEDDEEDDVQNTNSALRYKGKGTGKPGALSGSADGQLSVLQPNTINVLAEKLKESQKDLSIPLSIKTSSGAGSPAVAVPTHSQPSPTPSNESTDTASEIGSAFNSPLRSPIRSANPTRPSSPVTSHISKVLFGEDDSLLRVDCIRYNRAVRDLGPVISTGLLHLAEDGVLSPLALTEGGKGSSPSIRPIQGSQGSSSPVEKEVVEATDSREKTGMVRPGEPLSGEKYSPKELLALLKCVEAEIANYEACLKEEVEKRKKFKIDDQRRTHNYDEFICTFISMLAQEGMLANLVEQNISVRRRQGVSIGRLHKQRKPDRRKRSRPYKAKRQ

[13] = target: Peroxisome proliferator-activated receptor gamma/Nuclear receptor coactivator 3 (Homo sapiens, UniProt P37231); assay type: functional;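 note: agonist potency for raising coactivator recruitment to the receptor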
[14] = target: T1, RNA-binding protein pos-1 (Caenorhabditis elegans, UniProt G5EF15); assay: disruptors of C. elegans POS-1 RNA interaction – biochemical, fluorescence polarization, dose response (AID 1964);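 note: purified POS-1 fused to maltose binding protein made in E. coli; potency of compounds blocking POS-1 binding to fluorescent RNA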
T1 sequence (G5EF15 whole entry): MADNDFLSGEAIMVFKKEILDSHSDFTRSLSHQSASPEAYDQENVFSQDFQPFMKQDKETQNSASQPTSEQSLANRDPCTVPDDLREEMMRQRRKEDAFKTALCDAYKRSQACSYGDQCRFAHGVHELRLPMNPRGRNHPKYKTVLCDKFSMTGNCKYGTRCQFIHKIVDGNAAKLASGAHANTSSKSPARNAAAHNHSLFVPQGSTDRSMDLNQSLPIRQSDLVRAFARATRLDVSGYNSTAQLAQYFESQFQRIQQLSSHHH

[15] = target: T2, Zinc finger protein mex-5 (Caenorhabditis elegans, UniProt Q9XUB2); assay: potency of MEX-5 RNA-binding blockers – biochemical, C. elegans, fluorescence polarization, dose response (AID 1960)
T2 sequence (Q9XUB2 whole entry): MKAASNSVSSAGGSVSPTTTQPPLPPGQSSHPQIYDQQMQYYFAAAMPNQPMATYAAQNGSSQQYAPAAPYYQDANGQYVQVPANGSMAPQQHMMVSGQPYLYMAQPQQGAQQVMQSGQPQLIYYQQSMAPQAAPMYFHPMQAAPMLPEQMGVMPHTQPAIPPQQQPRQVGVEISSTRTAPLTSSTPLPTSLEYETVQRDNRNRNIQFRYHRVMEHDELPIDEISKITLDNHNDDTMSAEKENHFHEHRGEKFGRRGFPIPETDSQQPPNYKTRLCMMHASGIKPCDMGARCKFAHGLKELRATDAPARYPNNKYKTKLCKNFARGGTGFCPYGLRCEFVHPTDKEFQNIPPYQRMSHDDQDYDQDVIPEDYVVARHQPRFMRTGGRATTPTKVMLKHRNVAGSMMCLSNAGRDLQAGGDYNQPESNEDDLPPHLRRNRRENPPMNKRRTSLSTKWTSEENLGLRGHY

[16] = target: DNA (cytosine-5)-methyltransferase 1 (Homo sapiens, UniProt P26358); assay: inhibition of DNA methylation by DNMT1 – biochemical, fluorescent molecular beacon, confirmation (AID 602386); assay type: functional
[17] = target: Caspase-6 (Homo sapiens, UniProt P55212); assay: inhibition of CASP6 peptide cleavage – biochemical, VEID-R110 fluorescence, cherry-pick, dose response (AID 720632)
[18] = target: Caspase-9 (Homo sapiens, UniProt P55211); assay: inhibitors of purified CASP9 protease – biochemical, fluorescence, plate reader, cherry-picked samples, selectivity assay for caspase-6 inhibitor project, dose response (AID 743293)
[19] = target: T3, Histone-lysine N-methyltransferase NSD2 (Homo sapiens, UniProt O96028); assay type: biochemical
T3 sequence (O96028 whole entry): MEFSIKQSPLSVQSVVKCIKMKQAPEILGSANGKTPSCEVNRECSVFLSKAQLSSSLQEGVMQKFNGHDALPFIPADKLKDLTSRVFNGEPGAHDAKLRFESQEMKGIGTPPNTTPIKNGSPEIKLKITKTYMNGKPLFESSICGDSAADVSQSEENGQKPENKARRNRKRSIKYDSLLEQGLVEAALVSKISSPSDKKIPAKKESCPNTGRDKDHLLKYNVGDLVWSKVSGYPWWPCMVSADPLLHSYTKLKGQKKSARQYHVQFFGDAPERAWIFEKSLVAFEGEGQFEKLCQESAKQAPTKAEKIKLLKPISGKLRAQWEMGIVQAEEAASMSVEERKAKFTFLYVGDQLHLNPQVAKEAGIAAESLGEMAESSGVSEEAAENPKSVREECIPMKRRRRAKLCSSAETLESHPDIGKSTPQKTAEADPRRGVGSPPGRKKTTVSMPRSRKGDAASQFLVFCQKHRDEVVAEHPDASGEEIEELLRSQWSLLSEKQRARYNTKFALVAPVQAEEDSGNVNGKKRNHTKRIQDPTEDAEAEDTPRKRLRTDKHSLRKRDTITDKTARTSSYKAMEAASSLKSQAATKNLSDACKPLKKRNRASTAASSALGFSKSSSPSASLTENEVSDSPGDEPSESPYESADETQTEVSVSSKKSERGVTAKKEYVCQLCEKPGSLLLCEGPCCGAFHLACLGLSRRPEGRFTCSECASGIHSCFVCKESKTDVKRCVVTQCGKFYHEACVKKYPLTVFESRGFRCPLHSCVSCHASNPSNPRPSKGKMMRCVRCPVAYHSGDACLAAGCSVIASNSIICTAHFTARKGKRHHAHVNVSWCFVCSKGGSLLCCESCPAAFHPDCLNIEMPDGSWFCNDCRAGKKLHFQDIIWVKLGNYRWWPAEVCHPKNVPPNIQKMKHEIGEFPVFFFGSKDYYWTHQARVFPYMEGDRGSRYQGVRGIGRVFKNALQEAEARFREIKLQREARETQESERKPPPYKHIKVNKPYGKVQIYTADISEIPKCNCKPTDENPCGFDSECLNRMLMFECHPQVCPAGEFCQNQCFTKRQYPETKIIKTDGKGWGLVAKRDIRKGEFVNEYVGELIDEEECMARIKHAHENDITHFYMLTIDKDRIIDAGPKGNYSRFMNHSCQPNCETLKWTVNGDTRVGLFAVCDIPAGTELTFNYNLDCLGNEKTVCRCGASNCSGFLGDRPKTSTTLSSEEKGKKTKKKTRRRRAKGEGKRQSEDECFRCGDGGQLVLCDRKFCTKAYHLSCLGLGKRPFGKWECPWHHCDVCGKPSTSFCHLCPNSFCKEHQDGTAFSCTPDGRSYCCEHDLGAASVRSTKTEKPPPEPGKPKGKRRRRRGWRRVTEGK

[20] = target: 1-phosphatidylinositol 4,5-bisphosphate phosphodiesterase gamma-1 (Homo sapiens, UniProt P19174); assay: Counterscreen for inhibitors of phospholipase C isozymes (PLC-B3): Fluorescence-based biochemical high throughput dose response assay to identify inhibitors of phospholipase C isozymes (PLC-gamma1).
1-phosphatidylinositol 4,5-bisphosphate phosphodiesterase gamma-1, sequence (P19174 whole entry): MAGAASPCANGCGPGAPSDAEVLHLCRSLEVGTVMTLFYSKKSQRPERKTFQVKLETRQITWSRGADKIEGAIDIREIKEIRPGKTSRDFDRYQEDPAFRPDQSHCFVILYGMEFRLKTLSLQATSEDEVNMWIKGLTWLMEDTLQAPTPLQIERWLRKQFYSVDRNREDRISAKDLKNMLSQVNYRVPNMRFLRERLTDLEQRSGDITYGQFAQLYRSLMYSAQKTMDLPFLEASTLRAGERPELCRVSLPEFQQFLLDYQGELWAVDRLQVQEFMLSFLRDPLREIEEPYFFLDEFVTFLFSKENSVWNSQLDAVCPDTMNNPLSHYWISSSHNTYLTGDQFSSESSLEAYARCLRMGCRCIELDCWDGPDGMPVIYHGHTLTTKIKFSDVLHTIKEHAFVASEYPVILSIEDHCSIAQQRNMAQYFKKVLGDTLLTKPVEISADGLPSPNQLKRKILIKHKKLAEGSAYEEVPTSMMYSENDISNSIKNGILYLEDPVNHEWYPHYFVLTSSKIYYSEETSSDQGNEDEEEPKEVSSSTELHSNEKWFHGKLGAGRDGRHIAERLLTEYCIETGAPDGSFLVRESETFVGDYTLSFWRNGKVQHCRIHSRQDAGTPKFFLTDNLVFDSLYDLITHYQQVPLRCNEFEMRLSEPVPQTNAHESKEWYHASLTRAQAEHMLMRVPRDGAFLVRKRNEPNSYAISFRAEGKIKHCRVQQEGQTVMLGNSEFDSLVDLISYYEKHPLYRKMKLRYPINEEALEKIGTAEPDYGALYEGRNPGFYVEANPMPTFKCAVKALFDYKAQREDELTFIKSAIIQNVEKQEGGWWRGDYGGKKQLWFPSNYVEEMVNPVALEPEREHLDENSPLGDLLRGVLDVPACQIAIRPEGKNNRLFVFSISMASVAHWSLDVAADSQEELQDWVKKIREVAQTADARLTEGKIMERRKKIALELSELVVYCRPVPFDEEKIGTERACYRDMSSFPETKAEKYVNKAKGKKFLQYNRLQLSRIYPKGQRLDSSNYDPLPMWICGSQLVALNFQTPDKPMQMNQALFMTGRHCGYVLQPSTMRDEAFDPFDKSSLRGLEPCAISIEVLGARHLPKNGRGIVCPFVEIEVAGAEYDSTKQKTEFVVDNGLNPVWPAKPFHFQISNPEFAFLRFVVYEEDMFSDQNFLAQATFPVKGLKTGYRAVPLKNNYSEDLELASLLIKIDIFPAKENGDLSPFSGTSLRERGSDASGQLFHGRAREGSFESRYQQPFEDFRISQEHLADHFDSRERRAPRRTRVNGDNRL

[21] = target: 1-phosphatidylinositol 4,5-bisphosphate phosphodiesterase beta-3 (Homo sapiens, UniProt Q01970); assay: Fluorescence-based biochemical high throughput dose response assay to identify inhibitors of phospholipase C isozymes (PLC-B3).
[22] = target: RNA-editing ligase 1, mitochondrial (Trypanosoma brucei brucei, UniProt P86926); assay: inhibition of trypanosome RNA editing ligase – biochemical, fluorescence, Trypanosoma brucei, dose response (AID 1117295); assay type: functional
RNA-editing ligase 1, mitochondrial, sequence (P86926 whole entry): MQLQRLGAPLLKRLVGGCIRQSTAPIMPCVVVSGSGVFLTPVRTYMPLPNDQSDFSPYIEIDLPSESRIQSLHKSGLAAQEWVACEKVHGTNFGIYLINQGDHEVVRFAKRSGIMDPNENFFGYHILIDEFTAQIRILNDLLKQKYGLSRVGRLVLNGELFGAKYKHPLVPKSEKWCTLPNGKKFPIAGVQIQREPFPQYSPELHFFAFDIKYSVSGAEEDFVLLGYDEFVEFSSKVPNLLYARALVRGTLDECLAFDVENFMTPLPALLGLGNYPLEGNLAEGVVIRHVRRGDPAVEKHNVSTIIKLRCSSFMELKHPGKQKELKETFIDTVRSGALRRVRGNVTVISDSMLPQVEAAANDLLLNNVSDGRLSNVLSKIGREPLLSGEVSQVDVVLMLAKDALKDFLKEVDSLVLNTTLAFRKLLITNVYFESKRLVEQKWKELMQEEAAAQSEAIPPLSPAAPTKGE

[23] = target: NADPH oxidase 1 (Homo sapiens, UniProt Q9Y5S8); assay: Late-stage luminescence-based cell-based dose response assay to identify inhibitors of NADPH oxidase 1 (NOX1): Purchased analogs 2.; assay type: functional
[24] = HIV-1 Vif–A3G interaction blockers – biochemical, TR-FRET, GST-Vif 1-94, biotin-A3G peptide, dose response retest, primary screen (AID 1117319); assay type: functional;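 note: TR-FRET signal of purified GST-Vif binding a biotinylated A3G peptide; inhibitors lower the FRET signal by blocking Vif and A3G binding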
[25] = target: Peroxisome proliferator-activated receptor gamma/Nuclear receptor corepressor 2 (Homo sapiens, UniProt P37231+Q9Y618); assay: Counterscreen for NR2E3 inverse agonists: TR-FRET-based biochemical high throughput dose response assay to identify inverse agonists of the interaction between peroxisome proliferator-activated receptor gamma (PPARg) and nuclear receptor co-repressor 2 (NCOR2).; assay type: functional
[26] = target: Photoreceptor-specific nuclear receptor (Homo sapiens, UniProt Q9Y5X4); assay: ligands suppressing NR2E3 nuclear receptor activity – biochemical, TR-FRET, dose response (AID 463256); assay type: functional
Photoreceptor-specific nuclear receptor, sequence (Q9Y5X4 whole entry): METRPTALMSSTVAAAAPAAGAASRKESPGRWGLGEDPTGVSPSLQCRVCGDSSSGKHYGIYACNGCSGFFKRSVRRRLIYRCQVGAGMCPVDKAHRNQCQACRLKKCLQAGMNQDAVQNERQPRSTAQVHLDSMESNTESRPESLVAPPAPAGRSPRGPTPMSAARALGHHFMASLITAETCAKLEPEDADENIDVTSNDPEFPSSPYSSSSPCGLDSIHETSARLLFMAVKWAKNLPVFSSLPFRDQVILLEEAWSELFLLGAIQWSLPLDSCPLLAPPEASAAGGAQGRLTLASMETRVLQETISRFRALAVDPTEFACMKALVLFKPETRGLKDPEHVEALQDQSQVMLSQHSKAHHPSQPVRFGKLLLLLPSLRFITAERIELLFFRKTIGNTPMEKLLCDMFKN

[27] = target: G-protein coupled receptor 55 (Homo sapiens, UniProt Q9Y2T6); assay: selective activators of receptor GPR55 – imaging, U2OS cells, beta-arrestin-GFP redistribution, primary screen (AID 1961); assay type: functional
[28] = M. tuberculosis growth inhibition, HTS (AID 449762); assay type: functional
[29] = microbe, parasite or virus in culture; assay type: functional; conditions: Mycobacterium tuberculosis
[30] = target: T4, D(2) dopamine receptor (Homo sapiens, UniProt P14416); assay: human DRD2 long isoform antagonists – cell-based, D2L isoform, counter-screen for D4 antagonist project, confirmation (AID 743377); assay type: functional
T4 sequence (P14416 whole entry, canonical isoform): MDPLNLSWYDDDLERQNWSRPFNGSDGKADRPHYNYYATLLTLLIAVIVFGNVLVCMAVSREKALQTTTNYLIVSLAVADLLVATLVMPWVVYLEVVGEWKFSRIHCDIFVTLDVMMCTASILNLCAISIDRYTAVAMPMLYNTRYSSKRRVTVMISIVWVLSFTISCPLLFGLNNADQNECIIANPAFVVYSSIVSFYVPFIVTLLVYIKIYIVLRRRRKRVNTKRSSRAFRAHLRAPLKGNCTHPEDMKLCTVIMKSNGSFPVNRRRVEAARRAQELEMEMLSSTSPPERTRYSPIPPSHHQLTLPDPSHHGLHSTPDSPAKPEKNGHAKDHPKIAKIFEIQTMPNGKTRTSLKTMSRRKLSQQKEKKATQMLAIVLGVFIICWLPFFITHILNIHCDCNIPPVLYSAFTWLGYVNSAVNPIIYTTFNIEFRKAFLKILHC

[31] = target: D(3) dopamine receptor (Homo sapiens, UniProt P35462); assay: Counterscreening of D4 Antagonists against Dopamine 3 DRD3 (Human), Confirmatory Assay.; assay type: functional
[32] = target: D(1A) dopamine receptor (Homo sapiens, UniProt P21728); assay: Counterscreening of D4 Antagonists against Dopamine 1 (Human), Confirmatory Assay.; assay type: functional
[33] = target: D(1B) dopamine receptor (Homo sapiens, UniProt P21918); assay: Counterscreening of D4 Antagonists against Dopamine 5 DRD5 (Human), Confirmatory Assay.; assay type: functional
D(1B) dopamine receptor, sequence (P21918 whole entry): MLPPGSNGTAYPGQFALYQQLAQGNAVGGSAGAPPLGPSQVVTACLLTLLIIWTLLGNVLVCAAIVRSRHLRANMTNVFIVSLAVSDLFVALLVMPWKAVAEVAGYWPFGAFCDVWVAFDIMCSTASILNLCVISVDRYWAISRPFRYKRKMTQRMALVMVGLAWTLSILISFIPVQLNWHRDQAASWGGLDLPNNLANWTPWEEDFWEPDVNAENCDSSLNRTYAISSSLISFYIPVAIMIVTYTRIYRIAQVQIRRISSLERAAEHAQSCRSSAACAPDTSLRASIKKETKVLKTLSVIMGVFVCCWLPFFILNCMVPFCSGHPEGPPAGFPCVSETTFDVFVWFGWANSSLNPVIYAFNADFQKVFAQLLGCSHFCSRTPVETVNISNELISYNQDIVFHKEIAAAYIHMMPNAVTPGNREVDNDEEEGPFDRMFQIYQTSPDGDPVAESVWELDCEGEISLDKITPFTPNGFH

[34] = target: T4, D(2) dopamine receptor; assay: Counterscreening of D4 Antagonists against Dopamine 2S (Human), Confirmatory Assay.; assay type: functional
[35] = target: G-protein coupled receptor 183 (Homo sapiens, UniProt P32249); assay: SAR confirmation of small molecule antagonists of the EBI2 receptor via a luminescent beta-arrestin assa.; assay type: functional
[36] = Dd2 parasite growth inhibition in erythrocytes – SYBR Green, dry powder samples, set 9, dose response (AID 1159568); assay type: functional, cell-based
[37] = target: Bifunctional protein GlmU (Mycobacterium tuberculosis, UniProt P9WMN3); assay: Inhibitors of Mycobacterial Glucosamine-1-phosphate acetyl transferase (GlmU). Secondary screen.; parameters: species or system Mycobacterium tuberculosis H37Rv

Cc1nnc(SCc2ccc(Cl)cc2)nc1/C=C/N(C)C
EC50 [1]: 0.66 µM (active)
EC50 [2]: > 60 µM (not active)
EC50 [3]: > 167 µM (inactive)

O=C(c1ccco1)N(CCC(c1ccccc1)c1ccco1)Cc1ccc(F)cc1 (stereo not drawn)
CC50 [4]: > 40 µM (active)

Cc1oc2ccc(OCC(N)=O)cc2c1C(=O)OC(C)C
IC50 [5]: 44.9 µM (not active)

Cc1ccc(-n2c(C)cc(C=C3C(=O)CC(C)(C)CC3=O)c2C)cc1
EC50 [6]: 17.4 µM (not active)

CC1=Nc2cccc3cccc(c23)N1
IC50 [7]: 3.71 µM (active)
IC50 [8]: > 100 µM (inconclusive)
IC50 [9]: > 100 µM (active)

CCc1nc(SCC(=O)Nc2ccc3c(c2)OCCO3)c2oc3ccccc3c2n1
EC50 [10]: 23.3 µM (not active)
EC50 [11]: > 79.4 µM (not active)
IC50 [12]: 13.9 µM (active)
EC50 [13]: > 79.4 µM (not active)

Nc1cc(S(=O)(=O)O)cc([N+](=O)[O-])c1O
EC50 [14]: > 300 µM (not active)
EC50 [15]: > 300 µM (not active)
IC50 [16]: 3.2 µM (active)
AC50 [17]: 3.5 µM (active)
AC50 [18]: > 70 µM (inactive)
AC50 [19]: 16.3 µM (active)
IC50 [20]: 3.97 µM (active)
IC50 [21]: > 123 µM (inactive)
IC50 [22]: 4.99 µM (active)

O=C(Oc1ccccc1)c1cc2cc([N+](=O)[O-])ccc2s1
IC50 [23]: > 17 µM (not active)

COc1ccc(Nc2nc(N)nc(CSC(=S)N3CCN(c4ccccc4)CC3)n2)cc1
IC50 [24]: > 100 µM (active)

COc1cccc2sc(NC(=O)c3ccc(Br)s3)nc12
IC50 [25]: 2.95 µM (active)
IC50 [26]: 3.41 µM (active)
EC50 [27]: > 32 µM (inactive)

COc1ccccc1/C=N/NC(=O)NC12CC3CC(CC(C3)C1)C2
IC50 [28]: > 100 µM (active)
CC50 [29]: > 40 µM (active)

COc1ccc(CN2CCO[C@@H](CCc3ccccc3)C2)cc1
IC50 [30]: 16.5 µM (active)
IC50 [31]: 8.17 µM (active)
IC50 [32]: 20 µM (inactive)
IC50 [33]: 20 µM (inactive)
IC50 [34]: 20 µM (inactive)

O=C(/C=C/c1ccc(F)cc1)N1CCN(S(=O)(=O)c2ccc(Br)cc2)CC1
IC50 [35]: 0.00343 µM (active)

COc1ccc(NC(=O)N2CCCCN3[C@H](CO)[C@@H](c4ccc(-c5ccccc5F)cc4)[C@H]3C2)cc1
AC50 [36]: 1.81 µM (active)

O=C1OCC2OC(O)C(O)C(O)C2OC(=O)c2cc(O)c(O)c(O)c2-c2c(O)c(O)c3oc(=O)c4c(c(O)c(O)c5oc(=O)c2c3c54)-c2c1cc(O)c(O)c2O (stereo not drawn)
IC50 [37]: < 1 µM (active)
IC50 [7]: 1.56 µM (active)
